Source: patent US20250263650A1, “FUNGUS AND MICROBIAL AGENT FOR TREATING MERCURY CONTAMINATION, USE THEREOF, MERCURY REMOVAL METHOD, AND METHOD FOR I[…] CAPABLE OF TREATING MERCURY CONTAMINATION” (ZHEJIANG UNIVERSITY, priority 2021, published 2025)

System: Zea mays L. seeds
Test: Tolerance of Zea mays L. to methylmercury and divalent mercury (seed germination in soil)
Format: in vivo
Experimental: Methylmercury was added to the soil, where five concentrations of 0 μg/kg, 2.5 μg/kg, 5 μg/kg, 7.5 μg/kg, and 10 μg/kg were set. Divalent mercury was added to the soil, where five concentrations of 0 mg/kg, 20 mg/kg, 30 mg/kg, 40 mg/kg, and 50 mg/kg were set. The soil was placed in a cultivation vessel (with a height of 14 cm and a diameter of 7 cm).
Seed disinfection and cultivation: Zea mays L. seeds were disinfected for 5 min in 1% sodium hypochlorite and then washed three times with sterile water (1 min each time), disinfected for 10 min with 15% H2O2 and then washed three times with sterile water (1 min each time), and then placed in a 2% water agar medium and vernalized overnight at 4° C. Then, the pretreated seeds were sown into the soil, and 10 P. purpureum seeds or 5 Zea mays L. seeds were sown in each vessel.

In the case of `[CH3][Hg][Cl]` [methylmercury], the “germination rate of the Zea mays L. seeds” value (from here on “germination rate”) (soil with 2.5 μg/kg methylmercury) is reported as 100% and the “germination rate” value (soil with 10 μg/kg methylmercury) is reported as 80%.
In the case of `[Hg+2]` [divalent mercury], the “germination rate” value (soil with 20 mg/kg divalent mercury) is reported as 100%, the “germination rate” value (soil with 30 mg/kg divalent mercury) is reported as 80% and the “germination rate” value (soil with 40 mg/kg divalent mercury) is reported as 60%.
